In this test the test system is bioburden of powdered lactose. Nature of the test: Bioburden testing (US Pharmacopeia 61, colony count) of lactose powder after ozone sterilization in the reactor chamber. Type of test: cell-based. As to conditions: 50 g lactose powder, 5 hrs, 35° C., 10 rpm, 0 ppm control 1800 CFU/ml. The method, then:
(§1) Briefly, 50 grams of lactose powder was loaded into the reactor chamber. The chamber was evacuated to reach a pressure of 0.008 Torr and then 0.01 Torr. Then the chamber was filled with ozone at 25 sccm to 2 ppm, 10 ppm or 20 ppm. The ozone was kept in the chamber for 5 hrs. The reaction was held at 35° C. and the reactor chamber was rotated at 10 rpm. At the end of the 5 hour incubation time, the chamber was evacuated to reach a pressure of 0.01 Torr and purged with nitrogen. The lactose was then tested using US Pharmacopeia 61 testing. Briefly, the samples were incubated in petri-dishes and counted for colony forming units (cfu).
as §1, with “ppm. Water vapor was also added at an ozone/water ratio of 1:10.” for “ppm.”, “test” for “tested”, “testing.” for “testing. Briefly, the samples were incubated in petri-dishes and counted for colony forming units (cfu).”

`O=[O+][O-]` [Dry ozone, ozone] had a Bioburden (ozone concentration 2 ppm) of 500 CFU/ml, a Bioburden (ozone concentration 10 ppm) of 50 CFU/ml and a Bioburden (ozone concentration 20 ppm) of under 1 CFU/ml.

These data come from patent US20250352679A1, “IN-SITU STE[…] VAPOR PHASE DEPOSITION” (Applied Materials, Inc., priority 2024, published 2025).
